From ChEMBL document CHEMBL3885861, “Open TG-GATES”

Species on record: Rattus norvegicus
Experiment: Open TG-GATES - Regimen: Single
Assay type: toxicity, organism-based, Sprague-Dawley
Design: regimen Single, gender Male, age 6 weeks
Details: in vivo, po, 300 mg/kg, route gavage, dose level Middle; for APTT / Bas / Eos / Fbg / Hb / Ht / Lym / MCH / MCHC / MCV / Mono / Neu / PT / Plat / RBC / Ret / WBC: tissue Blood; for KIDNEY_L / KIDNEY_R / KIDNEY_TOTAL: tissue Kidney; for LIVER: tissue Liver; for A/G / ALP / ALT / AST / BUN / CRE / Ca / Cl / DBIL / GLC / IP / K / LDH / Na / PL / RALB / TBIL / TC / TG / TP / gamma-GTP: tissue Plasma

Compound `CCCCNC(=O)NS(=O)(=O)c1ccc(C)cc1` [TOLBUTAMIDE] has a TERMINAL_BW (3 h) of 202.7 g, an APTT (3 h) of 16.1 s and a Bas (3 h) of 0%. For the same compound, the Eos (3 h) was 1%, the Fbg (3 h) was 308.4 mg/dL and the Hb (3 h) was 13.7 g/dL. The Ht (3 h) was 42.4%, the Lym (3 h) was 75.2% and the MCH (3 h) was 20.5 pg. For the same compound, the MCHC (3 h) was 32.3%, the MCV (3 h) was 63.5 fL and the Mono (3 h) was 3%. For the same compound, the Neu (3 h) was 20.4%, the PT (3 h) was 12.9 s and the Plat (3 h) was 121.4 x10_4/uL. It also gave an RBC (3 h) of 667.6 x10_4/ul, a Ret (3 h) of 9% and a WBC (3 h) of 75.7 x10_2/uL. For the same compound, the KIDNEY_L (3 h) was 0.9 g, the KIDNEY_R (3 h) was 0.9 g and the KIDNEY_TOTAL (3 h) was 1.8 g. For the same compound, the LIVER (3 h) was 8.8 g, the A/G (3 h) was 0.9 and the ALP (3 h) was 1501.4 IU/L. It also gave an ALT (3 h) of 42 IU/L, an AST (3 h) of 75 IU/L and a BUN (3 h) of 11.2 mg/dL. It also gave a CRE (3 h) of 0.2 mg/dL, a Ca (3 h) of 10.8 mg/dL and a Cl (3 h) of 107 meq/L. It also gave a DBIL (3 h) of 0.008 mg/dL, a GLC (3 h) of 148 mg/dL and an IP (3 h) of 8.4 mg/dL. For the same compound, the K (3 h) was 4.1 meq/L, the LDH (3 h) was 59.6 IU/L and the Na (3 h) was 141 meq/L. It also gave a PL (3 h) of 135.6 mg/dL, an RALB (3 h) of 2.6 g/dL and a TBIL (3 h) of 0.052 mg/dL. For the same compound, the TC (3 h) was 76.6 mg/dL, the TG (3 h) was 71.8 mg/dL and the TP (3 h) was 5.5 g/dL. The gamma-GTP (3 h) was 1 IU/L, the TERMINAL_BW (6 h) was 203.4 g and the APTT (6 h) was 17.5 s. The Bas (6 h) was 0.2%, the Eos (6 h) was 1% and the Fbg (6 h) was 295 mg/dL. It also gave a Hb (6 h) of 13.9 g/dL, a Ht (6 h) of 42.5% and a Lym (6 h) of 75.8%. It also gave an MCH (6 h) of 21.4 pg, an MCHC (6 h) of 32.7% and an MCV (6 h) of 65.5 fL. For the same compound, the Mono (6 h) was 2.6%, the Neu (6 h) was 20.4% and the PT (6 h) was 13.1 s. For the same compound, the Plat (6 h) was 119.3 x10_4/uL, the RBC (6 h) was 650 x10_4/ul and the Ret (6 h) was 9%. The WBC (6 h) was 68.2 x10_2/uL, the KIDNEY_L (6 h) was 0.9 g and the KIDNEY_R (6 h) was 0.9 g. The KIDNEY_TOTAL (6 h) was 1.8 g, the LIVER (6 h) was 8.5 g and the A/G (6 h) was 0.9. For the same compound, the ALP (6 h) was 1415.4 IU/L, the ALT (6 h) was 47.2 IU/L and the AST (6 h) was 81.8 IU/L. The BUN (6 h) was 11.6 mg/dL, the CRE (6 h) was 0.2 mg/dL and the Ca (6 h) was 11 mg/dL. For the same compound, the Cl (6 h) was 106.6 meq/L, the DBIL (6 h) was 0.006 mg/dL and the GLC (6 h) was 134.8 mg/dL. The IP (6 h) was 9.5 mg/dL, the K (6 h) was 3.8 meq/L and the LDH (6 h) was 54 IU/L. For the same compound, the Na (6 h) was 141.4 meq/L, the PL (6 h) was 126.6 mg/dL and the RALB (6 h) was 2.6 g/dL. It also gave a TBIL (6 h) of 0.058 mg/dL, a TC (6 h) of 66.6 mg/dL and a TG (6 h) of 59.2 mg/dL. For the same compound, the TP (6 h) was 5.4 g/dL, the gamma-GTP (6 h) was 1.2 IU/L and the TERMINAL_BW (9 h) was 200 g. The APTT (9 h) was 17.4 s, the Bas (9 h) was 0% and the Eos (9 h) was 1.2%. For the same compound, the Fbg (9 h) was 324 mg/dL, the Hb (9 h) was 13.7 g/dL and the Ht (9 h) was 41.4%. The Lym (9 h) was 69%, the MCH (9 h) was 20.7 pg and the MCHC (9 h) was 32.9%. For the same compound, the MCV (9 h) was 62.9 fL, the Mono (9 h) was 2.4% and the Neu (9 h) was 27%. For the same compound, the PT (9 h) was 13.4 s, the Plat (9 h) was 129.6 x10_4/uL and the RBC (9 h) was 659 x10_4/ul. The Ret (9 h) was 8.8%, the WBC (9 h) was 81.6 x10_2/uL and the KIDNEY_L (9 h) was 0.9 g. The KIDNEY_R (9 h) was 0.9 g, the KIDNEY_TOTAL (9 h) was 1.8 g and the LIVER (9 h) was 7.9 g. It also gave an A/G (9 h) of 0.9, an ALP (9 h) of 1449.6 IU/L and an ALT (9 h) of 40.4 IU/L. It also gave an AST (9 h) of 71.8 IU/L, a BUN (9 h) of 9.6 mg/dL and a CRE (9 h) of 0.2 mg/dL. The Ca (9 h) was 10.8 mg/dL, the Cl (9 h) was 106.4 meq/L and the DBIL (9 h) was 0.004 mg/dL. For the same compound, the GLC (9 h) was 136.6 mg/dL, the IP (9 h) was 9.9 mg/dL and the K (9 h) was 4 meq/L. For the same compound, the LDH (9 h) was 62 IU/L, the Na (9 h) was 142 meq/L and the PL (9 h) was 127.2 mg/dL. It also gave an RALB (9 h) of 2.6 g/dL, a TBIL (9 h) of 0.064 mg/dL and a TC (9 h) of 69.4 mg/dL. It also gave a TG (9 h) of 41.6 mg/dL, a TP (9 h) of 5.4 g/dL and a gamma-GTP (9 h) of 1 IU/L. It also gave a TERMINAL_BW (24 h) of 218.5 g, an APTT (24 h) of 16.4 s and a Bas (24 h) of 0.2%. For the same compound, the Eos (24 h) was 1%, the Fbg (24 h) was 314.2 mg/dL and the Hb (24 h) was 13.3 g/dL. For the same compound, the Ht (24 h) was 40.4%, the Lym (24 h) was 76.6% and the MCH (24 h) was 20.9 pg. The MCHC (24 h) was 33%, the MCV (24 h) was 63.5 fL and the Mono (24 h) was 3.6%. It also gave a Neu (24 h) of 18%, a PT (24 h) of 12.9 s and a Plat (24 h) of 125 x10_4/uL. For the same compound, the RBC (24 h) was 636.8 x10_4/ul, the Ret (24 h) was 8% and the WBC (24 h) was 102.5 x10_2/uL. For the same compound, the KIDNEY_L (24 h) was 0.9 g, the KIDNEY_R (24 h) was 0.9 g and the KIDNEY_TOTAL (24 h) was 1.9 g. For the same compound, the LIVER (24 h) was 10.3 g, the A/G (24 h) was 0.9 and the ALP (24 h) was 1549.2 IU/L. It also gave an ALT (24 h) of 45 IU/L, an AST (24 h) of 72.2 IU/L and a BUN (24 h) of 14.2 mg/dL. For the same compound, the CRE (24 h) was 0.2 mg/dL, the Ca (24 h) was 11.1 mg/dL and the Cl (24 h) was 105 meq/L. It also gave a DBIL (24 h) of 0.008 mg/dL, a GLC (24 h) of 180.2 mg/dL and an IP (24 h) of 8.5 mg/dL. For the same compound, the K (24 h) was 4 meq/L, the LDH (24 h) was 83 IU/L and the Na (24 h) was 141.2 meq/L. For the same compound, the PL (24 h) was 150.2 mg/dL, the RALB (24 h) was 2.5 g/dL and the TBIL (24 h) was 0.062 mg/dL. The TC (24 h) was 81.8 mg/dL, the TG (24 h) was 85 mg/dL and the TP (24 h) was 5.4 g/dL. It also gave a gamma-GTP (24 h) of 1 IU/L.
